Assay results published in article PMC8303187, “Anti-Inflammatory Effects of Compounds from Cudrania tricuspidata in HaCaT Human Keratinocytes” (International Journal of Molecular Sciences, 2021).

Assays:
[1] = tested on: IL-6 production in TNF-α + IFN-γ-treated HaCaT cells; assay: IL-6 production in TNF-α + IFN-γ-treated HaCaT cells (ELISA); type: cell-based, human; settings: for IL-6 production: HaCaT cells pre-treated 3 h, then TNF-α + IFN-γ 24 h, result in words; for IC50: Homo sapiens, HaCaT cells pre-incubated with compound 3 h, then TNF-α + IFN-γ (20 ng/mL) 24 h, ELISA
Excerpt: The skin consists of two basic layers: the epidermis and dermis. The epidermis is mainly composed of keratinocytes. Pro-inflammatory cytokines are known to play an important role in the immune response in keratinocytes. Previous studies have reported the roles of TNF-α and IFN-γ in inducing NF-κB activation, which upregulates the production of IL-6 and IL-8 [25]. […] Accordingly, the effect of the 16 compounds from C. tricuspidata on IL-6 production in TNF-α + IFN-γ-treated HaCaT cells were determined. Briefly, HaCaT cells were pre-incubated with different concentrations of the 16 compounds for 3 h, and then stimulated with TNF-α + IFN-γ for 24 h.
(§1) The cytokines and chemokines in IL-6, IL-8, CCL17 (TARC), and CCL5 (RANTES) HaCaT cells were detected using an enzyme-linked immunosorbent assay. The levels of these cytokines and chemokines were measured using commercial ELISA kits (BioLegend, San Diego, CA, USA), according to the manufacturer’s instructions.
Figure S2. Effects of the 16 compounds from C. tricuspidata on IL-6 production in TNF-α+IFN-γ-treated HaCaT cells (A, B, and C). Cells were pre-treated with the indicated concentrations of the 16 compounds from C. tricuspidata for 3 h and then stimulated with TNF-α+IFN-γ (20 ng/mL) for 24 h. IL-6 levels were determined as described in the Materials and Methods section. The results are presented as the mean ± standard deviation of three experiments. *p < 0.05, **p < 0.01, and ***p < 0.001 compared with TNF-

[2] = tested on: IL-8 production in TNF-α + IFN-γ-treated HaCaT cells; assay: IL-8 production in TNF-α + IFN-γ-treated HaCaT cells (ELISA); type: cell-based, human; settings: for IL-8 production: HaCaT cells pre-treated 3 h, then TNF-α + IFN-γ 24 h, result in words; for IC50: Homo sapiens, HaCaT cells pre-incubated with compound 3 h, then TNF-α + IFN-γ (20 ng/mL) 24 h, ELISA
Protocol: Next, the effect of the 16 compounds from C. tricuspidata on IL-8 production in HaCaT cells were determined. Briefly, HaCaT cells were pre-incubated with different concentrations of the 16 compounds for 3 h. Thereafter, the cells were subjected to TNF-α + IFN-γ stimulation for 24 h. […] Compound 2, with its flavanone skeletons, has been studied for its cyclooxygenase and tyrosinase inhibitory effects. In a previous study, compound 2 altered the anti-neuroinflammatory response in microglia. Compound 6, a prenylated flavanone, has been reported to have apoptotic effects on A375.S2 melanoma cells and to lead to the induction of apoptotic cell death in KM12, Caco-2, HT29, HCC2998, HCT116, and SW48 cell lines. […] This is the first report on the biological action of compounds 2, 6, 12, 13, 4, and 14 on the inhibitory effects of skin inflammatory factors in skin HaCaT cells. Therefore, further mechanism studies of these six compounds in HaCaT cells were conducted.
as §1
Figure S3. Effects of the 16 compounds from C. tricuspidata on IL-8 (A, B, and C) production in TNF-α+IFN-γ-treated HaCaT cells. The cells were pre-treated with the indicated concentrations of the C. tricuspidata compounds for 3 h, and then stimulated with TNF-α+IFN-γ (20 ng/mL) for 24 h. […] levels were determined as described in the Materials and Methods section. Data are expressed as the mean ± standard deviation of three experiments. *p < 0.05, **p < 0.01, and ***p < 0.001 compared with TNF- […]
(1 picture or pasted object on this page, not shown here)

[3] = tested on: IκBα degradation in HaCaT cells; assay: Degradation of cytoplasmic IκBα in TNF-α + IFN-γ-treated HaCaT cells (Western blotting); type: cell-based, human; settings: HaCaT cells pretreated 3 h, then TNF-α + IFN-γ (20 ng/mL) 10 min; Western blot
Excerpt: (§2) The activation of NF-κB by TNF-α and/or IFN-γ results from high levels of IκB phosphorylation and the degradation of IκB in keratinocytes. NF-κB–mediated inflammation is a significant component of innate immunity and seems to be a final common pathway for the aggravation of the inflammatory response to stimuli in immune diseases of the skin [56]. To determine the potential mechanisms of the inhibition of TNF-α + IFN-γ-induced pro-inflammatory enzyme and the mediator levels by the six compounds from C. tricuspidata, their effects on the phosphorylation and degradation of cytoplasmic IκBα and on p65 translocation to the nucleus were investigated. […] In addition, compounds 13, 4, and 14 inhibited the phosphorylation of IκBα (Figure 5C,D). When HaCaT cells were exposed to TNF-α + IFN-γ, NF-κB p65 translocated from the cytoplasm to the nucleus.
(§3) Figure 5 Effects of the six compounds from C. tricuspidata on the degradation of IκB-α (A,B), the phosphorylation of IκBα (C,D), and the translocation of NF-κB p65 to the nucleus (E,F) in HaCaT cells. Cells were pretreated with the six compounds from C. tricuspidata at the indicated concentrations for 3 h and stimulated with TNF-α + IFN-γ (20 ng/mL) for 10 min. IκBα, p-IκBα, and NF-κB p65 were analyzed using Western blotting, as described in the Materials and Methods section. Representative blots from four independent experiments are presented. The immunoblots were quantified using ImageJ software. The band intensity was normalized to that of actin or anti-proliferating cell nuclear antigen (PCNA). * p < 0.05, ** p < 0.01, *** p < 0.001 compared with TNF-α + IFN-γ only.
(§4) Cells were harvested and pelleted via centrifugation at 200× g for 3 min, washed with PBS, and lysed in 20 mM Tris-HCl buffer (pH 7.4) containing a protease inhibitor mixture (0.1 mM phenylmethanesulfonyl fluoride, 5 mg/mL aprotinin, 5 mg/mL pepstatin A, and 1 mg/mL chymostatin). The protein concentration was determined using a protein assay dye reagent concentrate (#5000006; Bio-Rad Laboratories, Hercules, CA, USA). A total of 30 micrograms of protein from each sample was resolved using 7.5% and 12% sodium dodecyl sulfate-polyacrylamide gel electrophoresis. Thereafter, the proteins were electrophoretically transferred onto Hybond enhanced chemiluminescence (ECL) nitrocellulose membranes (Bio-Rad Laboratories). The membranes were blocked with 5% skimmed milk, and sequentially incubated with the relevant primary antibody and horseradish peroxidase-conjugated secondary antibody, prior to ECL detection (Pierce Biotechnology, Rockford, IL, USA).
(§5) HaCaT cells were homogenized in PER-Mammalian Protein Extraction Buffer (1:20, w:v) (Pierce Biotechnology, Rockford, IL, USA) containing freshly added protease inhibitor cocktail I (EMD Biosciences, San Diego, CA, USA) and 1 mM phenylmethanesulfonyl fluoride. The cytosolic fractions were prepared using centrifugation at 16,000× g for 5 min at 4 °C, while the nuclear and cytoplasmic cell extracts were prepared using NE-PER nuclear and cytoplasmic extraction reagents, respectively (Pierce Biotechnology, Rockford, IL, USA).

[4] = tested on: IκBα phosphorylation in HaCaT cells; assay: Phosphorylation of IκBα in TNF-α + IFN-γ-treated HaCaT cells (Western blotting); type: cell-based, human; settings: HaCaT cells pretreated 3 h, then TNF-α + IFN-γ (20 ng/mL) 10 min; Western blot
Excerpt: as §2, §3
Cells were harvested and pelleted via centrifugation at 200× g for 3 min, washed with PBS, and lysed in 20 mM Tris-HCl buffer (pH 7.4) containing a protease inhibitor mixture (0.1 mM phenylmethanesulfonyl fluoride, 5 mg/mL aprotinin, 5 mg/mL pepstatin A, and 1 mg/mL chymostatin). The protein concentration was determined using a protein assay dye reagent concentrate (#5000006; Bio-Rad Laboratories, Hercules, CA, USA). […]

[5] = tested on: NF-κB p65 translocation to the nucleus in HaCaT cells; assay: NF-κB p65 translocation to the nucleus in TNF-α + IFN-γ-treated HaCaT cells (Western blotting); type: cell-based, human; settings: HaCaT cells pretreated 3 h, then TNF-α + IFN-γ (20 ng/mL) 10 min; Western blot
Excerpt: as §2, §3, §4, §5

[6] = tested on: HaCaT cells; assay: Cell Counting Kit (CCK)-8 cell viability / cytotoxicity assay; settings: CCK-8 assay, 24 h, concentration values that did not result in cytotoxicity
Protocol: The cytotoxicity of the 16 compounds was evaluated using a Cell Counting Kit (CCK)-8 assay on HaCaT cells.
To determine the viability of HaCaT cells, these were maintained at 2 × 10^4 cells/well, treated with the test compounds in the presence or absence of glutamate (5 mM), and cultured for 24 h. Subsequently, a CCK8 assay (Dojindo Laboratories, Kumamoto, Japan) was performed and the cells were incubated for 1 h. The absorbance was then measured at 450 nm.

Row | Compound | IL-6 production [1] | IC50 [1] | IL-8 production [2] | IC50 [2] | degradation of IκBα in the cytoplasm [3] | phosphorylation of IκBα [4] | NF-κB p65 translocation to the nucleus [5] | Cytotoxicity [6]
1 | CC(C)=CCc1c(O)cc2c(c1O)C(=O)C[C@@H](c1ccc(O)cc1O)O2 [Compound 4, cudraflavanone B] | significantly decreased | > 20 µM | decreased | 9.88 ± 3.22 µM | inhibit | inhibited | significantly inhibited | >20 µM
2 | C=CC(C)(C)c1c(O)cc(O)c2c(=O)c3cc(O)c(O)cc3oc12 [Compound 14, cudratricusxanthone L] | significantly decreased | 9.86 ± 0.92 µM | decreased | 3.7 ± 0.7 µM | inhibit | inhibited | significantly inhibited | >20 µM
3 | C=CC(C)(C)c1c(OC)cc2oc3cc(O)c(O)cc3c(=O)c2c1O [Compound 13, 1,6,7-trihydroxy-2-(1,1-dimethyl-2-propenyl)-3-methoxyxanthone] | significantly decreased | 9.69 ± 2.15 µM | decreased | 3.87 ± 0.96 µM | inhibit | inhibited | no significant effect | >40 µM
4 | CC(C)=CCc1c(O)cc2oc(-c3ccc(O)cc3O)c(CC=C(C)C)c(=O)c2c1O [Compound 6, cudraflavone C] | significantly decreased | 2.78 ± 0.75 µM | decreased | 2.16 ± 0.5 µM | inhibit |  | significantly inhibited | >5 µM
